Measurements taken from PubChem BioAssay (NCI).
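How tested: cells in 96-well plates exposed to compound for 48 hours at five concentrations. GI50 is the concentration that inhibits growth by half. TGI denotes the concentration required for complete inhibition of growth.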

Key:
Assay in all cases: growth of human tumour cells (NCI), 48 h
CAKI-1 renal = system: CAKI-1 renal
COLO 205 colon = system: COLO 205 colon
HCC-2998 colon = system: HCC-2998 colon
HCT-15 colon = system: HCT-15 colon
MALME-3M melanoma = system: MALME-3M melanoma
NCI-H460 lung = system: NCI-H460 lung
SF-539 CNS = system: SF-539 CNS
SK-OV-3 ovarian = system: SK-OV-3 ovarian

Row | SMILES | TGI (CAKI-1 renal) | TGI (COLO 205 colon) | TGI (HCC-2998 colon) | TGI (HCT-15 colon) | TGI (MALME-3M melanoma) | TGI (NCI-H460 lung) | TGI (SF-539 CNS) | TGI (SK-OV-3 ovarian) | GI50 (CAKI-1 renal) | GI50 (COLO 205 colon) | GI50 (HCC-2998 colon) | GI50 (HCT-15 colon) | GI50 (MALME-3M melanoma) | GI50 (NCI-H460 lung) | GI50 (SF-539 CNS) | GI50 (SK-OV-3 ovarian)
1 | COc1cc2oc3c(c(=O)c2c(O)c1/C=C/C(C)C)C(C=C(C)C)Oc1cc(O)ccc1-3 (stereo not given) | 32.2 µM | 29.4 µM | 25.2 µM | 31.7 µM | 38.9 µM | 30.9 µM | 31.8 µM | 30.5 µM |  |  |  |  |  |  |  | 
2 | Nc1nc(N)c2nc3c(nc2n1)CCCCCCCCCC3 | > 100 µM | > 100 µM | > 100 µM | > 100 µM | > 100 µM | > 100 µM | > 100 µM | > 100 µM | 3.36 µM | 6.83 µM | 3.83 µM | 0.891 µM | 4.48 µM | 0.358 µM | 5.69 µM | 12 µM
3 | CN1CCN(c2nc(-c3csc(-c4cccs4)n3)cc3ccccc23)CC1 | 3.01 µM |  | 3.4 µM | 3.15 µM | 3.12 µM | 3.25 µM | 3.04 µM |  | 1.61 µM |  | 1.72 µM | 1.63 µM | 1.65 µM | 1.78 µM | 1.64 µM | 
4 | O=C1N(Cc2ccccc2Cl)c2ccccc2C12NN=C(c1cccc(Cl)c1)S2 (stereo not given) | 3.07 µM | 3.3 µM | 3.24 µM | 4.19 µM | 3.24 µM | 3.32 µM |  | 3.05 µM | 1.69 µM | 1.77 µM | 1.78 µM | 1.9 µM | 1.54 µM | 1.42 µM |  | 1.69 µM
5 | CC1SC2(CCCCC2)N(NC(=O)c2[nH]c3ccc(Br)cc3c2-c2ccccc2)C1=O (stereo not given) | > 100 µM | > 100 µM | > 100 µM | > 100 µM | 59.3 µM | > 100 µM | > 100 µM | > 100 µM | 62.5 µM | > 100 µM | > 100 µM | > 100 µM | 17.2 µM | 48.2 µM | > 100 µM | > 100 µM
6 | NC(=O)c1sc(-n2cnc3cc(C(F)(F)F)ccc32)cc1OCc1ccccc1Br | > 25 µM | > 25 µM | > 25 µM | > 25 µM | > 25 µM | > 25 µM | > 25 µM | > 25 µM | > 25 µM | > 25 µM | > 25 µM | > 25 µM | > 16.2 µM | > 19.6 µM | 24.9 µM | 9.07 µM
7 | CCCCCCNCc1cc(C(C)(C)C)cc(CNCCCCCC)c1O | 3.08 µM | 3.07 µM | 2.99 µM | 3.1 µM | 3.43 µM | 3.34 µM | 3.09 µM |  | 1.69 µM | 1.67 µM | 1.62 µM | 1.63 µM | 1.74 µM | 1.81 µM | 1.64 µM | 
8 | COc1ccc(CCN2CCC(CN(C)Cc3cnn(-c4ccccc4)c3)CC2)cc1 | 19.9 µM | 11.7 µM | 18.1 µM | 18.5 µM | 4.29 µM | 39.2 µM | 8.08 µM | 39.9 µM | 5.42 µM | 3.42 µM | 5.13 µM | 4.49 µM | 2.08 µM | 18.7 µM | 2.77 µM | 16.2 µM
9 | COc1ccc(-c2csc(NC(=O)CN3CCN(c4cc5c(cc4F)c(=O)c(C(=O)O)cn5C4CC4)CC3)n2)cc1 | > 100 µM |  | > 100 µM | > 100 µM | 7.49 µM | > 100 µM | > 100 µM | 8.32 µM | 3.57 µM |  | 4.8 µM | 3.23 µM | 2.37 µM | 3.18 µM | 3.61 µM | 2.86 µM
10 | O=[N+]([O-])c1cc2no[n+]([O-])c2cc1N1CCCCC1 | 12.5 µM | 30.4 µM | 33.1 µM | 11.9 µM |  | 56.6 µM | > 20.1 µM | 27.4 µM |  |  |  |  |  |  |  | 
11 | CCCCOC1OC(COC(=O)C(C)C)C(OC(=O)C(C)C)C(O)C1OC1OC(C)C(OC(=O)CCC)C(OC(=O)C(C)C)C1O (stereo not given) | 31.1 µM | 25.8 µM |  | 27.3 µM | 35.2 µM | 27.8 µM | 34.8 µM | 34 µM | 17.4 µM | 13.1 µM |  | 14.2 µM | 19.5 µM | 11.6 µM | 20.5 µM | 19.8 µM
12 | Cc1ccc(C2NC(=O)c3ccccc3N2)c(C)c1 (stereo not given) | 18.6 µM | 14.2 µM | > 61.1 µM | > 77 µM | > 69.1 µM | > 100 µM | 5.15 µM | > 100 µM |  |  |  |  |  |  |  | 
